We go through five molecules from US20130130985A1 (priority 2010, published 2013).

Where a SMILES comes first, the peptide text is derived from it.

For series [1] the following is noted: phosphate buffer pH 7.4, 37° C., over a period of 48 h.
Series [2] in a line: Stability assay in rat plasma and human serum (metabolic half life). The note with it: Half life (h), 37° C., matrix of the values not specified.
Description: 300 μL rat plasma and human serum (Sigma Aldrich) was incubated at 37° C. for 30 min. 50 mL of peptide sample (0.3 mM) in 0.1 M phosphate buffer, pH 7.2 was added to the rat plasma and human serum. The vortexed mixture was incubated at 37° C.
For series [3], the target named is T1, hV1aR (Homo sapiens, UniProt P37288).
T1 construct: expressed in transfected cells; host or cells: COS-1
The series is described as follows: Functional IP-One HTRF assay. In kind it is cell-based. The method, then: (§1) Cells were lysed by the addition of the HTRF reagents (the europium cryptate-labeled anti-IP1 antibody and the d2-labeled IP1 analogue) diluted in lysis buffer. The assays were incubated for 1 h at room temperature.

For series [4], the target named is T1, hV1aR. The series is described as follows: Functional FLIPR assay (calcium signalling). In kind it is cell-based. The method, then: (§2) To allow for complete de-esterification of the dye, cells were washed 5-10 min with PSS before transfer to a FLIPR^TETRA (Molecular Devices, Sunnyvale, Calif.) fluorescent plate reader. […] The baseline fluorescence was set to a minimum of 1000 arbitrary fluorescence units by adjusting camera gain and excitation intensity. Compounds were added as 3× concentrated stock solutions in PSS, with 10 baseline fluorescence readings prior to compound addition followed by fluorescence reading every second for 180 s.
(§3) As previously described, raw fluorescence data was converted to ΔF/F values by subtracting baseline fluorescence readings from subsequent time points and dividing by baseline fluorescence values. […] A 4-parameter Hill equation with Hill coefficient=1 was fitted to the data using GraphPad Prism (Version 4.00, San Diego, Calif.).

Series [5] concerns the target T2, hOTR (Homo sapiens, UniProt P30559).
T2 construct: expressed in transfected cells; host or cells: COS-1
T2 sequence (P30559 1-389): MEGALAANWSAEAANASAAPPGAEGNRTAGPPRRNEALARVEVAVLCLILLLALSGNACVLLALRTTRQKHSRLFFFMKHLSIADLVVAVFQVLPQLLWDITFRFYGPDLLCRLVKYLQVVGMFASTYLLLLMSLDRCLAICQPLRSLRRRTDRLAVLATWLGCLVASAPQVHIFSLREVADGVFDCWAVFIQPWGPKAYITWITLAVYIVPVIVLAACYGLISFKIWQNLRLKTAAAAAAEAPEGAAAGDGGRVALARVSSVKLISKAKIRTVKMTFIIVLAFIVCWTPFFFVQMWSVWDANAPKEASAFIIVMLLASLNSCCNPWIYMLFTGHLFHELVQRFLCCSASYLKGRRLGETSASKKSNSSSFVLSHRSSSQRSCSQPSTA
The series is described as follows: Functional IP-One HTRF assay. In kind it is cell-based. The note with it: for Emax: read-out: hOTR Emax. The procedure:
as §1

In series [6] the target is T3, hV1bR (Homo sapiens, UniProt P47901).
T3 construct: expressed in transfected cells; host or cells: COS-1
T3 sequence (P47901 1-424): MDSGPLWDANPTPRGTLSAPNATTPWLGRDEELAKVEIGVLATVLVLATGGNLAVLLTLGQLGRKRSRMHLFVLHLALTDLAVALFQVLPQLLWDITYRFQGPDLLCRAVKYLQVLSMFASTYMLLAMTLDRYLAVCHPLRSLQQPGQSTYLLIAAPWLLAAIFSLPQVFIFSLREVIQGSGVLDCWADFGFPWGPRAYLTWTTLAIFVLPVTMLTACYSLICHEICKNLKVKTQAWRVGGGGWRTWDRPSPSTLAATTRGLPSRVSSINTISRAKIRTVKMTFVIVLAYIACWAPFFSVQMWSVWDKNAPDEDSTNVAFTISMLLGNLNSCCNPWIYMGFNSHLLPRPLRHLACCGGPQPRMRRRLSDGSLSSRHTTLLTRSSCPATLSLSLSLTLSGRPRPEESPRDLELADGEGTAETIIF
The series is described as follows: Functional IP-One HTRF assay. The format is cell-based. The procedure: as §1

The target in series [7] is T2, hOTR. Kind of series: Radioligand binding assay, displacement of 3H-OT, COS-1 membranes.
The target of series [8] is T3, hV1bR. Kind of series: Radioligand binding assay, displacement of 3H-AVP, COS-1 membranes.
Series [9] concerns the target T2, hOTR. Kind of series: Functional FLIPR assay (calcium signalling). The format is cell-based. The procedure: as §2, §3
For series [10], the target named is T3, hV1bR. The series is described as follows: Functional FLIPR assay (calcium signalling). In kind it is cell-based. The procedure:
as §2, §3

T1 sequence (P37288 whole entry): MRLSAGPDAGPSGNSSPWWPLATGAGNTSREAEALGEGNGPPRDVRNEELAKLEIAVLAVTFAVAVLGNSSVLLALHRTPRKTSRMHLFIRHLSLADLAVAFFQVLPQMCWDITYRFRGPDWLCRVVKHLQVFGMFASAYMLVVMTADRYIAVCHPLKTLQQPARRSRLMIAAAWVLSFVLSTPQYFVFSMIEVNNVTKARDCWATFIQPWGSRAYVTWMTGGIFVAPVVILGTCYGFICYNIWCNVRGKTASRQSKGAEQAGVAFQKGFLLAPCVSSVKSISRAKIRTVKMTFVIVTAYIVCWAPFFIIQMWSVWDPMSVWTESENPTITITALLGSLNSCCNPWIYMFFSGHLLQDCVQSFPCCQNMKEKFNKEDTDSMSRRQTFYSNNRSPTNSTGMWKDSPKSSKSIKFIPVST

For `NC(=O)CC[C@@H]1NC(=O)[C@H](Cc2ccccc2)NC(=O)[C@H](Cc2ccc(O)cc2)NC(=O)[C@@H](N)CSSC[C@@H](C(=O)N2CCC[C@H]2C(=O)N[C@@H](CCCN=C(N)N)C(=O)NCC(N)=O)NC(=O)[C@H](CC(N)=O)NC1=O` [AVP, arginine-vasopressin], the “degradation in phosphate buffer” value in [1] was “no degradation was observed”. Moreover, in series [2], the half-life at 0.043 mM was 2 h.
For `CC[C@H](C)[C@@H]1NC(=O)[C@H](Cc2ccc(O)cc2)NC(=O)[C@@H](N)CSSC[C@@H](C(=O)N2CCC[C@H]2C(=O)N[C@@H](CC(C)C)C(=O)NCC(N)=O)NC(=O)[C@H](CC(N)=O)NC(=O)[C@H](CCC(N)=O)NC1=O` [OT, Oxytocin], the Emax on hV1aR [3] turned out to be 79 ± 9%; on hV1aR [4], 71%. For the same molecule, in [1], the “degradation in phosphate buffer” value is given as “no degradation was observed”.
Turning to `CC[C@H](C)[C@@H]1NC(=O)[C@H](Cc2ccc(O)cc2)NC(=O)[C@@H](N)CCSC[C@@H](C(=O)N2CCC[C@H]2C(=O)N[C@@H](CC(C)C)C(=O)NCC(N)=O)NC(=O)[C@H](CC(N)=O)NC(=O)[C@H](CCC(N)=O)NC1=O` [[CH2—S]-OT] (HELM PEPTIDE1{[N[C@@H](CC[*:3])C(=O)[*:2]].Y.I.Q.N.C.P.L.G.[am]}$PEPTIDE1,PEPTIDE1,1:R3-6:R3$$$V2.0; N-terminus and C-terminus assumed), the Emax was 64 ± 14% at hOTR [5] and 75 ± 8% at hV1aR [3].
For `CC[C@H](C)[C@@H]1NC(=O)[C@H](Cc2ccc(O)cc2)NC(=O)[C@@H](N)CSSC[C@@H](C(=O)N2CCC[C@H]2C(=O)N[C@@H](CC(C)C)C(=O)NCC(=O)O)NC(=O)[C@H](CC(N)=O)NC(=O)[C@H](CCC(N)=O)NC1=O` [[S—S]-OT-OH, OT-OH], the “drop in functional efficacy at the hOTR” value on hOTR [5] (compared to OT) is 10-30 fold. Also, the maximal effect (Emax) was found to be 82 ± 13% at hOTR [5], 77 ± 24% on hV1aR [3] and 96 ± 6% on hV1bR [6]. For the same molecule, the “drop in functional efficacy at the hV1bR” value at hV1bR [6] (compared to OT) is listed as 10-30 fold.
For the molecule `CC[C@H](C)[C@@H]1NC(=O)[C@H](Cc2ccc(O)cc2)NC(=O)CCSSC[C@@H](C(=O)N2CCC[C@H]2C(=O)N[C@@H](CC(C)C)C(=O)NCC(N)=O)NC(=O)[C@H](CC(N)=O)NC(=O)[C@H](CCC(N)=O)NC1=O` [dOT], the IC50 on hOTR [7] stood at 0.0017 µM; at hV1bR [8], 0.351 ± 0.125 µM. For the same molecule, the EC50 stood at 0.00071 µM at hOTR [5] (IP-One assay, COS-1); 0.47 ± 0.422 µM on hV1bR [6] (IP-One assay, COS-1); 0.00039 µM on hOTR [9] (FLIPR assay, COS-1); 0.0461 µM on hV1aR [4] (FLIPR assay, COS-1); 0.0159 ± 0.00596 µM at hV1bR [10] (FLIPR assay, COS-1). For the same molecule, the Emax at hOTR [5] was determined as 100%; on hV1bR [6], 67 ± 10%; on hOTR [9], 89%; on hV1aR [4], 54%; at hV1bR [10], 100%.
